Each structure is given as a SMILES string.

Assay [1] is filed under the species Canis familiaris. Nature of the assay: Tested for mean heart rate in dog after ID50 dose. Type of assay: functional, Canis lupus familiaris.
Assay [2] relates to Canis familiaris. In words: Tested for mean blood pressure in dog before drug administration. The assay is classed as functional, Canis lupus familiaris.
For assay [3], the species on record is Canis familiaris. In words: Tested for mean blood pressure in dog after ID50 dose. The assay is classed as functional, Canis lupus familiaris.
The species entered for another assay is Felis catus. Nature of the assay: Tested for inhibition of cardioaccelerator nerves of cat. Type of assay: functional. Particulars: read-out: ID50 (the source's name).
The subject of assay [4] is Canis familiaris. Nature of the assay: Tested for mean heart rate in dog before drug administration. The assay is classed as functional, Canis lupus familiaris.
Assay [5] addresses T1, Alpha-1A adrenergic receptor (Homo sapiens) (UniProt P35348).
T1 sequence (whole entry): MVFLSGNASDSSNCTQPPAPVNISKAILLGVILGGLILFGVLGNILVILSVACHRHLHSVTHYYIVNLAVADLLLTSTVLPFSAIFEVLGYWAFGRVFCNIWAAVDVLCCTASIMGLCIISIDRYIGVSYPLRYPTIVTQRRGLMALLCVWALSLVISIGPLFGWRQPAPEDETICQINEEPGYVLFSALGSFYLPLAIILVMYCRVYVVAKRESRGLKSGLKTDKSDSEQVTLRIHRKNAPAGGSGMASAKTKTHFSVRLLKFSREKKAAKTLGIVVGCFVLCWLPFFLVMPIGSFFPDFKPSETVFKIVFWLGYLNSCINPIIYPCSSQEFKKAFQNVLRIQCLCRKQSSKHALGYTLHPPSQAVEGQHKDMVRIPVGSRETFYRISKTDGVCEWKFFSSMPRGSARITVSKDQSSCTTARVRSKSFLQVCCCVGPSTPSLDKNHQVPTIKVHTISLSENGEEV
In words: Inhibitory activity against adrenergic alpha-receptor transmission, its effect being blocked by phentolamine. The settings on record: Felis catus.

As for `Br.CCN1CCCC2c3cc(O)c(O)cc3CCC21` (stereo unspecified), the Activity came out at 162.8 beats min-1 in the assay filed under Canis familiaris [1], 115 mmHg in the assay with Canis familiaris [2], 89.8 mmHg in the assay filed under Canis familiaris [3] and 183 beats min-1 in the assay on Canis familiaris [4]. For the same molecule, in the assay listed under Felis catus, the ED50 was determined as 0.45 µmol/kg.
For `Br.CCN1CCC[C@@H]2c3cc(O)c(O)cc3CC[C@H]21`, in that order: 161.3 beats min-1, 115.4 mmHg, 90.9 mmHg, 176.9 beats min-1 and 0.0009 µmol/kg.
Consider `Br.CN1CCC[C@@H]2c3cc(O)c(O)cc3CC[C@H]21`, for which the Activity in the assay filed under Canis familiaris [1] was determined as 160.9 beats min-1; with Canis familiaris [2], 116.7 mmHg; in the assay listed under Canis familiaris [3], 95.6 mmHg; in the assay with Canis familiaris [4], 175.4 beats min-1. The ED50 in the assay listed under Felis catus was found to be 0.0055 µmol/kg.
Taken in the same sequence, the figures for `Br.CCCN1CCCC2c3cc(O)c(O)cc3CCC21` (stereo unspecified) were 165 beats min-1, 114.9 mmHg, 82.9 mmHg, 175.7 beats min-1 and 0.26 µmol/kg.
For `CN1CCc2cccc3c2[C@H]1Cc1ccc(O)c(O)c1-3` [APOMORPHINE], in that order: 128.9 beats min-1, 109.5 mmHg, 92 mmHg, 139.2 beats min-1 and 0.022 µmol/kg.
Taken in the same sequence, the figures for `Br.CCCN1CCC[C@@H]2c3cc(O)c(O)cc3CC[C@H]21` were 156.9 beats min-1, 116.4 mmHg, 73.6 mmHg, 178 beats min-1 and 0.0013 µmol/kg.
On to `Br.CN1CCCC2c3cc(O)c(O)cc3CCC21` (cis isomer), for which the Activity in the assay listed under Canis familiaris [1] was 158.6 beats min-1; with Canis familiaris [2] it was 125.8 mmHg; in the assay filed under Canis familiaris [3], 95.4 mmHg; in assay [5], 2 mg/kg; in the assay with Canis familiaris [4], 174 beats min-1. In addition, the ED50 in the assay listed under Felis catus was 0.31 µmol/kg.

The values above are taken from ChEMBL document CHEMBL1121518, “Congeners of the beta conformer of dopamine derived from cis- and trans-octahydrobenzo[f]quinoline and trans-octahydrobenzo[g]quinoline” (1980).
